Laboratory results: patent publication US6525001B1, “Substituted pyrimidine and pyridine herbicides” (Mid-American Commercialization Corporation, priority 1997, dated 2003)

Tests used:
Assay type in all cases: in vivo
[1] = test system: bedstraw (Galium aparine); assay: Test B pre-/postemergence; design: key: 0 is no effect; 10 is complete control; details: Postemergence
Summary of the method: (§1)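 Response scores run from 0, meaning no effect, to 10, meaning complete control, assigned by eye relative to controls twelve to sixteen days after spraying. Treatment was both preemergence on planted seed and postemergence on plants at the 1- to 4-leaf stage.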

[2] = test system: blackgrass (Alopecurus myosuroides); assay: Test B pre-/postemergence; design: key: 0 is no effect; 10 is complete control; details: for Blackgrass plant response rating: Preemergence
Summary of the method: as §1

[3] = test system: broadleaf signalgrass (Brachiaria decumbens); assay: Test B pre-/postemergence; design: key: 0 is no effect; 10 is complete control; details: for B. signalgrass plant response rating: Preemergence
Summary of the method: as §1

[4] = test system: cocklebur (Xanthium strumarium); assay: Test B pre-/postemergence; design: key: 0 is no effect; 10 is complete control; details: for Plant response rating, Cocklebur: Postemergence; for Cocklebur plant response rating: Preemergence
Summary of the method: as §1

corn (Zea mays) = assay: Test B pre-/postemergence; design: key: 0 is no effect; 10 is complete control; details: for Corn plant response rating: Preemergence
Summary of the method: as §1

[5] = test system: crabgrass (Digitaria sanguinalis); assay: Test B pre-/postemergence; design: key: 0 is no effect; 10 is complete control; details: for Crabgrass plant response rating: Preemergence
Summary of the method: as §1

[6] = test system: giant foxtail (Setaria faberii); assay: Test B pre-/postemergence; design: key: 0 is no effect; 10 is complete control
Summary of the method: as §1

[7] = test system: momingglory (Ipomoea hederacea); assay: Test B pre-/postemergence; design: key: 0 is no effect; 10 is complete control
Summary of the method: as §1

[8] = test system: pigweed (Amaranthus retroflexus); assay: Test B pre-/postemergence; design: key: 0 is no effect; 10 is complete control
Summary of the method: as §1

[9] = test system: purple nutsedge (Cyperus rotundus); assay: Test B pre-/postemergence; design: key: 0 is no effect; 10 is complete control
Summary of the method: as §1

rape (Brassica napus) = assay: Test B pre-/postemergence; design: key: 0 is no effect; 10 is complete control
Summary of the method: as §1

soybean (Glycine max) = assay: Test B pre-/postemergence; design: key: 0 is no effect; 10 is complete control
Summary of the method: as §1

[10] = test system: sugar beet (Beta vulgaris); assay: Test B pre-/postemergence; design: key: 0 is no effect; 10 is complete control
Summary of the method: as §1

[11] = test system: velvetleaf (Abutilon theophrasti); assay: Test B pre-/postemergence; design: key: 0 is no effect; 10 is complete control
Summary of the method: as §1

[12] = test system: wheat (Triticum aestivum); assay: Test B pre-/postemergence; design: key: 0 is no effect; 10 is complete control
Summary of the method: as §1

wild oat (Avena fatua) = assay: Test B pre-/postemergence; design: key: 0 is no effect; 10 is complete control
Summary of the method: as §1

[13] = test system: bamyardgrass (Echinochloa crus-galli); assay: Test B flood test
Summary of the method: (§2)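 Each value is a visual injury score relative to controls, with 10 meaning complete control and 0 no effect. Evaluation took place twelve to sixteen days after the 2-leaf-stage plants were treated and kept in the greenhouse.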

[14] = test system: duck salad (Heteranthera limosa); assay: Test B flood test
Summary of the method: as §2

rice (Oryza sativa) = assay: Test B flood test
Summary of the method: as §2

[15] = test system: smallflower flatsedge (Cyperus difformis); assay: Test B flood test
Summary of the method: as §2

[16] = Rate 250 g/ha, Postemergence (so in the source)
[17] = Rate 62 g/ha, Postemergence (flood test)
[18] = Rate 125 g/ha, Postemergence, flood test
[19] = Rate 250 g/ha, Postemergence (flood test species)
[20] = Rate 125 g/ha, Postemergence section (flood test species)

Cc1cnc(-c2ccc(F)cc2F)nc1Cc1cccc(C(F)(F)F)c1 [Compound 31]
Plant response rating, Bedstraw ([1]; Rate 62 g/ha): 4 | Plant response rating, Bedstraw ([1]; Rate 125 g/ha): 6 | Plant response rating, Bedstraw ([1]; Rate 250 g/ha): 6 | Plant response rating, Blackgrass ([2]; Rate 62 g/ha, Postemergence): 2 | Blackgrass plant response rating ([2]; Rate 62 g/ha): 1 | Plant response rating, Blackgrass ([2]; Rate 125 g/ha, Postemergence): 2 | Blackgrass plant response rating ([2]; Rate 125 g/ha): 2 | Plant response rating, Blackgrass ([2]; Rate 250 g/ha, Postemergence): 4 | Plant response rating, Blackgrass [2, 16]: 3 | Plant response rating, B. signalgrass ([3]; Rate 62 g/ha, Postemergence): 3 | B. signalgrass plant response rating ([3]; Rate 62 g/ha): 3 | Plant response rating, B. signalgrass ([3]; Rate 125 g/ha, Postemergence): 3 | B. signalgrass plant response rating ([3]; Rate 125 g/ha): 9 | Plant response rating, B. signalgrass ([3]; Rate 250 g/ha, Postemergence): 5 | Plant response rating, B. signalgrass ([3]; Rate 250 g/ha, Postemergence as printed in head r139 (second section for compounds 26-50)): 9 | Plant response rating, Cocklebur ([4]; Rate 62 g/ha): 6 | Cocklebur plant response rating ([4]; Rate 62 g/ha): 0 | Plant response rating, Cocklebur ([4]; Rate 125 g/ha): 6 | Cocklebur plant response rating ([4]; Rate 125 g/ha): 0 | Plant response rating, Cocklebur ([4]; Rate 250 g/ha): 7 | Plant response rating, Corn (corn (Zea mays); Rate 62 g/ha, Postemergence): 2 | Corn plant response rating (corn (Zea mays); Rate 62 g/ha): 0 | Plant response rating, Corn (corn (Zea mays); Rate 125 g/ha, Postemergence): 2 | Corn plant response rating (corn (Zea mays); Rate 125 g/ha): 0 | Plant response rating, Corn (corn (Zea mays); Rate 250 g/ha, Postemergence): 2 | Plant response rating, Corn (corn (Zea mays); [16]): 1 | Plant response rating, Crabgrass ([5]; Rate 62 g/ha, Postemergence): 4 | Crabgrass plant response rating ([5]; Rate 62 g/ha): 1 | Plant response rating, Crabgrass ([5]; Rate 125 g/ha, Postemergence): 8 | Crabgrass plant response rating ([5]; Rate 125 g/ha): 4 | Plant response rating, Crabgrass ([5]; Rate 250 g/ha, Postemergence): 9 | Plant response rating, Crabgrass [5, 16]: 10 | Plant response rating, Giant foxtail ([6]; Rate 62 g/ha, Postemergence): 2 | Giant foxtail plant response rating ([6]; Rate 62 g/ha, Preemergence): 2 | Giant foxtail plant response rating ([6]; Rate 125 g/ha, Postemergence): 3 | Giant foxtail plant response rating ([6]; Rate 125 g/ha, Preemergence): 5 | Plant response rating, Giant foxtail ([6]; Rate 250 g/ha, Postemergence): 3 | Plant response rating, Giant foxtail [6, 16]: 10 | Plant response rating, Morningglory ([7]; Rate 62 g/ha, Postemergence): 3 | Morningglory plant response rating ([7]; Rate 62 g/ha, Preemergence): 0 | Morningglory plant response rating ([7]; Rate 125 g/ha, Postemergence): 3 | Morningglory plant response rating ([7]; Rate 125 g/ha, Preemergence): 2 | Plant response rating, Morningglory ([7]; Rate 250 g/ha, Postemergence): 4 | Plant response rating, Morningglory [7, 16]: 2 | Plant response rating, Redroot pigweed ([8]; Rate 62 g/ha, Postemergence): 8 | Redroot pigweed plant response rating ([8]; Rate 62 g/ha, Preemergence): 1 | Redroot pigweed plant response rating ([8]; Rate 125 g/ha, Postemergence): 9 | Redroot pigweed plant response rating ([8]; Rate 125 g/ha, Preemergence): 2 | Plant response rating, Redroot pigweed ([8]; Rate 250 g/ha, Postemergence): 9 | Plant response rating, Redroot pigweed [8, 16]: 3 | Plant response rating, Nutsedge ([9]; Rate 62 g/ha, Postemergence): 0 | Nutsedge plant response rating ([9]; Rate 62 g/ha, Preemergence): 0 | Nutsedge plant response rating ([9]; Rate 125 g/ha, Postemergence): 0 | Nutsedge plant response rating ([9]; Rate 125 g/ha, Preemergence): 0 | Plant response rating, Nutsedge [9, 16]: 0 | Plant response rating, Rape (rape (Brassica napus); Rate 62 g/ha, Postemergence): 8 | Rape plant response rating (rape (Brassica napus); Rate 62 g/ha, Preemergence): 0 | Rape plant response rating (rape (Brassica napus); Rate 125 g/ha, Postemergence): 8 | Rape plant response rating (rape (Brassica napus); Rate 125 g/ha, Preemergence): 0 | Plant response rating, Rape (rape (Brassica napus); Rate 250 g/ha, Postemergence): 9 | Plant response rating, Rape (rape (Brassica napus); [16]): 1 | Plant response rating, Soybean (soybean (Glycine max); Rate 62 g/ha, Postemergence): 4 | Soybean plant response rating (soybean (Glycine max); Rate 62 g/ha, Preemergence): 0 | Soybean plant response rating (soybean (Glycine max); Rate 125 g/ha, Postemergence): 4 | Plant response rating, Soybean (soybean (Glycine max); Rate 125 g/ha, Preemergence): 0 | Plant response rating, Soybean (soybean (Glycine max); Rate 250 g/ha, Postemergence): 7 | Plant response rating, Soybean (soybean (Glycine max); [16]): 0 | Plant response rating, Sugarbeets ([10]; Rate 62 g/ha, Postemergence): 10 | Sugarbeets plant response rating ([10]; Rate 62 g/ha, Preemergence): 0 | Sugarbeets plant response rating ([10]; Rate 125 g/ha, Postemergence): 10 | Plant response rating, Sugarbeets ([10]; Rate 125 g/ha, Preemergence): 0 | Plant response rating, Sugarbeets ([10]; Rate 250 g/ha, Postemergence): 10 | Plant response rating, Sugarbeets [10, 16]: 3 | Plant response rating, Velvetleaf ([11]; Rate 62 g/ha, Postemergence): 2 | Velvetleaf plant response rating ([11]; Rate 62 g/ha, Preemergence): 0 | Velvetleaf plant response rating ([11]; Rate 125 g/ha, Postemergence): 2 | Plant response rating, Velvetleaf ([11]; Rate 125 g/ha, Preemergence): 0 | Plant response rating, Velvetleaf ([11]; Rate 250 g/ha, Postemergence): 4 | Plant response rating, Velvetleaf [11, 16]: 0 | Wheat plant response rating ([12]; Rate 62 g/ha, Postemergence): 1 | Wheat plant response rating ([12]; Rate 62 g/ha, Preemergence): 0 | Wheat plant response rating ([12]; Rate 125 g/ha, Postemergence): 3 | Plant response rating, Wheat ([12]; Rate 125 g/ha, Preemergence): 0 | Plant response rating, Wheat ([12]; Rate 250 g/ha, Postemergence): 4 | Plant response rating, Wheat [12, 16]: 0 | Wild oats plant response rating (wild oat (Avena fatua); Rate 62 g/ha, Postemergence): 2 | Wild oats plant response rating (wild oat (Avena fatua); Rate 62 g/ha, Preemergence): 0 | Wild oats plant response rating (wild oat (Avena fatua); Rate 125 g/ha, Postemergence): 3 | Plant response rating, Wild oats (wild oat (Avena fatua); Rate 125 g/ha, Preemergence): 1 | Plant response rating, Wild oats (wild oat (Avena fatua); Rate 250 g/ha, Postemergence): 4 | Plant response rating, Wild oats (wild oat (Avena fatua); [16]): 2 | Plant response rating, Barnyardgrass [13, 17]: 2 | Plant response rating, Barnyardgrass [13, 18]: 3 | Plant response rating, Barnyardgrass [13, 19]: 5 | Plant response rating, Ducksalad [14, 17]: 1 | Plant response rating, Ducksalad [14, 18]: 2 | Plant response rating, Ducksalad [14, 19]: 6 | Plant response rating, Rice (rice (Oryza sativa); [17]): 1 | Rice plant response rating (rice (Oryza sativa); [20]): 2 | Plant response rating, Rice (rice (Oryza sativa); [19]): 3 | Plant response rating, S. Flatsedge [15, 17]: 4 | S. Flatsedge plant response rating [15, 20]: 7 | Plant response rating, S. Flatsedge [15, 19]: 8
